From US4051129A, “Process for preparing 7-methoxycephalosporin compounds” (Sankyo Company Limited, priority 1974, dated 1977)
Converted amounts (≈) assume the structure as drawn. Where two headings read alike, the source gives them in different places.

What was measured:
Assay type in all cases: cell-based
[1] = system: Shigella flexneri Komagome; assay: Minimum Inhibitory Concentration, Shigella flexneri Komagome; details: III: Shigella flexneri Komagome
[2] = system: Salmonella enteritidis Gartner; assay: Minimum Inhibitory Concentration, Salmonella enteritidis Gartner; details: Salmonella enterica; VI: Salmonella enteritidis Gartner
[3] = system: Staphylococcus aureus 209 P; assay: Minimum Inhibitory Concentration, Staphylococcus aureus 209 P; details: IA: Staphylococcus aureus 209 P
[4] = system: Klebsiella neumoniae 846 (resistant to CER); assay: Minimum Inhibitory Concentration, Klebsiella neumoniae 846 (resistant to CER); details: read-out: Minimum Inhibitory Concentration
[5] = system: Proteus vulgaris; assay: Minimum Inhibitory Concentration, Proteus vulgaris; details: V: Proteus vulgaris
[6] = system: Klebsiella neumoniae 806; assay: Minimum Inhibitory Concentration, Klebsiella neumoniae 806; details: Klebsiella, 806, read-out: Minimum Inhibitory Concentration
[7] = system: Staphylococcus aureus (resistant to CP and PC); assay: Minimum Inhibitory Concentration, Staphylococcus aureus (resistant to CP and PC); details: IB: Staphylococcus aureus (resistant to CP and PC)
[8] = system: Escherichia coli 609 (resistant to CER); assay: Minimum Inhibitory Concentration, Escherichia coli 609 (resistant to CER); details: read-out: Minimum Inhibitory Concentration
[9] = system: Escherichia coli NIHJ; assay: Minimum Inhibitory Concentration, Escherichia coli NIHJ; details: IIA: Escherichia coli NIHJ
[10] = IIB: Escherichia coli 609 (resistant to CER)

Row | SMILES | MIC [1] [µg/mL] | MIC [2] [µg/mL] | MIC [3] [µg/mL] | MIC [4] [µg/mL] | MIC [5] [µg/mL] | MIC [6] [µg/mL] | MIC [7] [µg/mL] | MIC [8, 10] [µg/mL] | MIC [9] [µg/mL] | MIC ([8]; Escherichia coli) [µg/mL]
1 | CCS(=O)(=O)CC(=O)N[C@]1(OC)C(=O)N2C(C(=O)O)=C(CSc3nnnn3C)CS[C@@H]21 [C2 H5 SO2 / drawing 6, 7β-ethylsulfonylacetamido-7α-methoxy-3-(1-methyl-1H-tetrazol-5-yl)thiomethyl-3-cephem-4-carboxylic acid] | 1.5 (≈ 3.05 µM) | 0.8 (≈ 1.62 µM) | – | – | – | – | – | – | – | –
2 | CO[C@@]1(NC(=O)CS(C)(=O)=O)C(=O)N2C(C(=O)O)=C(CSc3nnnn3C)CS[C@@H]21 [CH3 SO2 / drawing 6, 7β-methylsulfonylacetamido-7α-methoxy-3-(1-methyl-1H-tetrazol-5-yl)thiomethyl-3-cephem-4-carboxylic acid] | 1.5 (≈ 3.13 µM) | – | – | – | – | – | – | – | – | –
3 | CO[C@@]1(NC(=O)CSCCO)C(=O)N2C(C(=O)O)=C(CSc3nnnn3C)CS[C@@H]21 [HOCH2 CH2 S / drawing 6, 7β-(2-hydroxyethylthio)acetamido-7α-methoxy-3-(1-methyl-1H-tetrazol-5-yl)thiomethyl-3-cephem-4-carboxylic acid] | 1.5 (≈ 3.15 µM) | 0.8 (≈ 1.68 µM) | 0.8 (≈ 1.68 µM) | 200 (≈ 420 µM) | 3.1 (≈ 6.5 µM) | – | – | – | – | –
4 | CO[C@@]1(NC(=O)CSCN=[N+]=[N-])C(=O)N2C(C(=O)O)=C(COC(C)=O)CS[C@@H]21 [N3 CH2 S / OCOCH3, 3-acetoxymethyl-7β-azidomethylthioacetamido-7α-methoxy-3-cephem-4-carboxylic acid] | 6.2 (≈ 14.4 µM) | – | – | > 200 | – | 6.2 (≈ 14.4 µM) | – | – | – | –
5 | CO[C@@]1(NC(=O)CSCN=[N+]=[N-])C(=O)N2C(C(=O)O)=C(COC(N)=O)CS[C@@H]21 [N3 CH2 S / OCONH2, 7β-azidomethylthioacetamido-3-carbamoyloxymethyl-7α-methoxy-3-cephem-4-carboxylic acid] | 3.1 (≈ 7.17 µM) | – | 0.2 (≈ 0.462 µM) | > 400 | – | – | – | – | – | –
6 | CO[C@@]1(NC(=O)CSCN=[N+]=[N-])C(=O)N2C(C(=O)O)=C(CSc3nnnn3C)CS[C@@H]21 [N3 CH2 S / drawing 10, 7β-azidomethylthioacetamido-7α-methoxy-3-(1-methyl-1H-tetrazol-5-yl)thiomethyl-3-cephem-4-carboxylic acid] | 1.5 (≈ 3.08 µM) | 0.8 (≈ 1.64 µM) | 0.4 (≈ 0.82 µM) | > 200 | – | – | 0.4 (≈ 0.82 µM) | – | – | –
7 | CO[C@@]1(NC(=O)CS(=O)(=O)CCC#N)C(=O)N2C(C(=O)O)=C(CSc3nnnn3C)CS[C@@H]21 [NC(CH2)2 SO2 / drawing 6, 7β-cyanoethylsulfonyl-acetamido-7α-methoxy-3-(1-methyl-1H-tetrazol-5-yl)thiomethyl-3-cephem-4-carboxylic acid] | 3.1 (≈ 5.99 µM) | 0.8 (≈ 1.55 µM) | – | 200 (≈ 386 µM) | – | – | – | – | – | –
8 | CO[C@@]1(NC(=O)CSCC#N)C(=O)N2C(C(=O)O)=C(COC(C)=O)CS[C@@H]21 [NCCH2 S / OCOCH3, 3-acetoxymethyl-7β-cyanomethylthioacetamido-7α-methoxy-3-cephem-4-carboxylic acid] | 3.1 (≈ 7.46 µM) | – | – | – | – | – | – | – | – | –
9 | CO[C@@]1(NC(=O)CSCC#N)C(=O)N2C(C(=O)O)=C(COC(N)=O)CS[C@@H]21 [NCCH2 S / OCONH2, 3-carbamoyloxymethyl-7β-cyanomethylthioacetamido-7α-methoxy-3-cephem-4-carboxylic acid] | 3.1 (≈ 7.44 µM) | 1.5 (≈ 3.6 µM) | – | – | – | 3.1 (≈ 7.44 µM) | 3.1 (≈ 7.44 µM) | 1.5 (≈ 3.6 µM) | – | –
10 | CO[C@@]1(NC(=O)CSCC#N)C(=O)N2C(C(=O)O)=C(CSc3nnnn3C)CS[C@@H]21 [NCCH2 S / drawing 6, 7β-cyanomethylthioacetamido-7α-methoxy-3-(1-methyl-1H-tetrazol-5-yl)thiomethyl-3-cephem-4-carboxylic acid] | 0.8 (≈ 1.7 µM) | 0.2 (≈ 0.424 µM) | 0.2 (≈ 0.424 µM) | – | 1.5 (≈ 3.18 µM) | 0.8 (≈ 1.7 µM) | – | – | – | –
11 | CO[C@@]1(NC(=O)C[n+]2cc([O-])on2)C(=O)N2C(C(=O)O)=C(CSc3nnnn3C)CS[C@@H]21 [drawing 7 / drawing 6, 7β-(sydnon-3)acetamido-7α-methoxy-3-(1-methyl-1H-tetrazol-5-yl)thiomethyl-3-cephem-4-carboxylic acid] | 1.5 (≈ 3.1 µM) | 0.8 (≈ 1.65 µM) | 0.8 (≈ 1.65 µM) | > 200 | – | – | – | – | – | –
12 | CO[C@@]1(NC(=O)CSC(C)C#N)C(=O)N2C(C(=O)O)=C(CSc3nnnn3C)CS[C@@H]21 (stereo partly drawn) [drawing 8 / drawing 6, 7β-(1-cyanoethyl)-acetamido-7α-methoxy-3-(1-methyl-1H-tetrazol-5-yl)thiomethyl-3-cephem-4-carboxylic acid] | 1.5 (≈ 3.09 µM) | 0.4 (≈ 0.824 µM) | 0.4 (≈ 0.824 µM) | 400 (≈ 824 µM) | 0.8 (≈ 1.65 µM) | 1.5 (≈ 3.09 µM) | 0.8 (≈ 1.65 µM) | 3.1 (≈ 6.38 µM) | 1.5 (≈ 3.09 µM) | –
13 | C#CCSCC(=O)N[C@]1(OC)C(=O)N2C(C(=O)O)=C(CSc3nnnn3C)CS[C@@H]21 [drawing 9 / drawing 10, 7β-propargylthioacetamido-7α-methoxy-3-(1-methyl-1H-tetrazol-5-yl)thiomethyl-3-cephem-4-carboxylic acid] | 3.1 (≈ 6.59 µM) | – | – | – | – | – | – | – | – | –
14 | CO[C@@]1(NC(=O)COc2ccon2)C(=O)N2C(C(=O)O)=C(CSc3nnnn3C)CS[C@@H]21 [drawing 11 / drawing 10, 7β-(3-isoxazolyloxy)acetamido-7α-methoxy-3-(1-methyl-1H-tetrazol-5-yl)thiomethyl-3-cephem-4-carboxylic acid] | 3.1 (≈ 6.41 µM) | – | – | – | – | – | – | – | – | –
15 | CO[C@@]1(NC(=O)CSc2ccon2)C(=O)N2C(C(=O)O)=C(CSc3nnnn3C)CS[C@@H]21 [drawing 12 / drawing 10, 7β-(3-isoxazolylthio)acetamido-7α-methoxy-3-(1-methyl-1H-tetrazol-5-yl)thiomethyl-3-cephem-4-carboxylic acid] | 3.1 (≈ 6.21 µM) | 0.8 (≈ 1.6 µM) | 0.2 (≈ 0.4 µM) | > 400 | – | – | 0.8 (≈ 1.6 µM) | – | – | –
16 | CO[C@@]1(NC(=O)CSc2ccon2)C(=O)N2C(C(=O)O)=C(COC(C)=O)CS[C@@H]21 [drawing 13 / OCOCH3, 3-acetoxymethyl-7β-(3-isoxazolylthio)acetamido-7α-methoxy-3-cephem-4-carboxylic acid] | 6.2 (≈ 14 µM) | – | – | – | – | – | – | – | – | –
17 | C#CCSCC(=O)N[C@]1(OC)C(=O)N2C(C(=O)O)=C(COC(C)=O)CS[C@@H]21 [drawing 14 / OCOCH3] | 12.5 (≈ 30.2 µM) | 6.2 (≈ 15 µM) | 1.5 (≈ 3.62 µM) | > 200 | 12.5 (≈ 30.2 µM) | 12.5 (≈ 30.2 µM) | 6.2 (≈ 15 µM) | – | – | 12.5 (≈ 30.2 µM)
